Data on eleven molecules can be found in patent US20060106014A1, “Methods for treating diabetes” (priority 2004, published 2006).

The target in one assay is T1, 5-lipoxygenase (Homo sapiens, UniProt P09917).
T1 sequence (P09917 1-674): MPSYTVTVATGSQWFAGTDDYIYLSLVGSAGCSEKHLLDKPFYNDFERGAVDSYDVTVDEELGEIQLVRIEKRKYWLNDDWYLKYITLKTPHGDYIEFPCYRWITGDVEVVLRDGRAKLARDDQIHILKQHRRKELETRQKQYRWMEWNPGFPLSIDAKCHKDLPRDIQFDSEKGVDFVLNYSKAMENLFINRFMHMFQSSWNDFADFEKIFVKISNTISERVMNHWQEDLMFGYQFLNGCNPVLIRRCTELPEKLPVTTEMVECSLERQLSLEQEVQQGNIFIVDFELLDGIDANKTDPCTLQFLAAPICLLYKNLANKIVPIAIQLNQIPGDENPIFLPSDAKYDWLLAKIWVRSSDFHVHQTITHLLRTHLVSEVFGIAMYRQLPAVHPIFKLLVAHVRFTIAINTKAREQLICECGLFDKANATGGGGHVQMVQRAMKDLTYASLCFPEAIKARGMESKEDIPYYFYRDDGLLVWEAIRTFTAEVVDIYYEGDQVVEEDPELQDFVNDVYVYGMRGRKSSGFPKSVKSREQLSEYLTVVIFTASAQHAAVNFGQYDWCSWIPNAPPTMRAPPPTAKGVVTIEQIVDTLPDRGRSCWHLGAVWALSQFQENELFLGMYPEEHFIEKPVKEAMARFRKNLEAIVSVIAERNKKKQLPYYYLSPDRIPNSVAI
Kind of assay: 5-Lipoxygenase Enzyme Assay (colorimetric, ferric oxidation of xylenol orange). In kind it is biochemical. Set-up: purchased Cayman 60402. To be noted: read-out: in vitro IC50 value in a 5-LO enzyme assay. Here is the method: This procedure was used for measuring the enzymatic activity of human recombinant 5-lipoxygenase using a colorimetric method based on the ferric oxidation of xylenol orange.
(§1) The test compound and/or vehicle was added to 0.5 μL 5-lipoxygenase in 50 mM Tris-HCl buffer, pH 7.4. The reaction was initiated by addition of 70 μM arachidonic acid in Tris-HCl buffer, pH 7.4, and terminated after a 10 minute incubation at room temperature by addition of FOX reagent (25 mM sulphuric acid, 100 μM xylenol orange, 100 μM iron (II) sulphate, methanol:water 9:1). The yellow color of acidified xylenol orange was converted to a blue color by the lipid hydroperoxide-mediated oxidation of Fe^2+ ions and the interaction of the resulting Fe^3+ ions with the dye. The complex was allowed to form during a 1 hour incubation at room temperature with shaking. Absorbance of the Fe^3+ complex was then measured at 620 nm using a spectrophotometer. Negative controls contained enzyme during the incubation step but substrate was not added until after the FOX reagent.

In assay [1] the target is T2, porcine leukocyte 12/15-lipoxygenase (Sus scrofa, UniProt P16469).
T2 construct: purchased Cayman 60300
T2 sequence (P16469 1-663): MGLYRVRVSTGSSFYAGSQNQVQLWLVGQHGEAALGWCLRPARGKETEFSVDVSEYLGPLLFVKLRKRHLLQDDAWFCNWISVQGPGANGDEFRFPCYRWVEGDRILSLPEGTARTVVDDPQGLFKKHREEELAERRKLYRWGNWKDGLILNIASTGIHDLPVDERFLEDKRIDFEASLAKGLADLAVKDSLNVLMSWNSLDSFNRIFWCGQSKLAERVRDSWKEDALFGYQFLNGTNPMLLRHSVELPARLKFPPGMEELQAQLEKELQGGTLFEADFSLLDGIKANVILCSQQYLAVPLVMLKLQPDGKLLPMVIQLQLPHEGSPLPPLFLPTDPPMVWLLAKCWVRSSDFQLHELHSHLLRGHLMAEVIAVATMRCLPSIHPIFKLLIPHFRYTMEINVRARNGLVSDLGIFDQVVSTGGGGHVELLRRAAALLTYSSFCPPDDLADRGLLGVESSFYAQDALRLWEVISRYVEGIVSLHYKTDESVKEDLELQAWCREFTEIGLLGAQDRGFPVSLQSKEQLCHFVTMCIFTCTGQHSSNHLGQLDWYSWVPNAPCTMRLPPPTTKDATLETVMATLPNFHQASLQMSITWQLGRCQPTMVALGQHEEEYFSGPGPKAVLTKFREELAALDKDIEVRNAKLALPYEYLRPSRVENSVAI
Kind of assay: 12/15-Lipoxygenase Enzyme Assay (colorimetric, ferric oxidation of xylenol orange). Format: biochemical. The note with it: read-out: in vitro IC50 value in a 12/15-LO enzyme assay. As to the method: This procedure was used for measuring the enzymatic activity of porcine leukocyte 12/15-lipoxygenase using a colorimetric method based on the ferric oxidation of xylenol orange.
as §1, with “vehicle were” for “vehicle was”, “to 1.3” for “to 0.5”, “μL 12/15-lipoxygenase” for “μL 5-lipoxygenase”, “spectrophotometer.” for “spectrophotometer. Negative controls contained enzyme during the incubation step but substrate was not added until after the FOX reagent.”
Negative controls contained enzyme during the incubation step but substrate was not added until after the FOX reagent.

Some results are limits rather than exact numbers.

As for `CNc1ccc(C=Cc2cc(O)c(O)c(CC=C(C)C)c2)cc1` [5-(4-(methylamino)styryl)-3-(3-methylbut-2-enyl)benzene-1,2-diol], the IC50 (at 5-lipoxygenase; in assay [1]) was less than 5 µM each time.
Turning to `O=[N+]([O-])c1ccc(CCc2cc(O)c(O)c(O)c2)cc1` [5-(4-nitrophenethyl)benzene-1,2,3-triol], the IC50 (at 5-lipoxygenase; in assay [1]) was less than 5 µM throughout.
Turning to `Cc1c(C)c2c(c(-c3ccco3)c1O)CCC(C)(C)O2` [5-(furan-2-yl)-2,2,7,8-tetramethylchroman-6-ol], the IC50 (on 5-lipoxygenase; in assay [1]) was less than 5 µM throughout.
As for `C=CCSCc1c(O)c(C)c(C)c2c1CCC(C)(C)O2` [5-allylsulfanylmethyl-2,2,7,8-tetramethyl-chroman-6-ol], the IC50 (at 5-lipoxygenase; in assay [1]) was less than 5 µM in each case.
`Cc1c(C)c2c(c(Cl)c1O)CCC(C)(C)O2` [5-chloro-2,2,7,8-tetramethylchroman-6-ol]: the IC50 (at 5-lipoxygenase; in assay [1]) was less than 5 µM in each case.
As to `COc1c(O)c(C)c(C)c2c1CCC(C)(C)O2` [5-methoxy-2,2,7,8-tetramethylchroman-6-ol], the IC50 (at 5-lipoxygenase; in assay [1]) was less than 5 µM in each case.
For `Cc1c(O)c(Br)c(C)c2c1CCC(C)(C)O2` [7-bromo-2,2,5,8-tetramethyl-chroman-6-ol], the IC50 (at 5-lipoxygenase; in assay [1]) was less than 5 µM in each case.
Take `Cc1c(O)c(C)c2c(c1I)OC(C)(C)CC2` [8-iodo-2,2,5,7-tetramethylchroman-6-ol]: the IC50 (at 5-lipoxygenase; in assay [1]) was less than 5 µM each time.
Regarding `Cc1c(O)c(C)c2c(c1CCC(C)C)OC(C)(C)CC2` [8-isopentyl-2,2,5,7-tetramethylchroman-6-ol], the IC50 (at 5-lipoxygenase; in assay [1]) was less than 5 µM in each case.
Take `CC(=O)Nc1ccc(C=Cc2ccc(O)c(O)c2)cc1` [N-{4-[2-(3,4-dihydroxy-phenyl)-vinyl]-phenyl}acetamide]: the IC50 (on 5-lipoxygenase; in assay [1]) was less than 5 µM in each case.
For the molecule `CS(=O)(=O)Nc1ccc(C=Cc2ccc(O)c(O)c2)cc1` [N-{4-[2-(3,4-dihydroxy-phenyl)-vinyl]-phenyl}methanesulfonamide], the IC50 (on 5-lipoxygenase; in assay [1]) was less than 5 µM throughout.
